Results on eight compounds are retold here after US9499485B2, “Compounds that are S1P modulating agents and/or ATX modulating agents” (BIOGEN MA INC., priority 2012, dated 2016).

Bounds are passed on as bounds.

The IC50 is the concentration at which inhibition is half-maximal.

One assay addresses T1, Human ATX protein (Homo sapiens, UniProt Q13822).
T1 construct: made in house
The assay is described as follows: ATX biochemical FRET assay with FS-3 substrate. The settings on record: FS-3 2 μM, ATX 1.0 μg/mL, binned table, read-out: IC50 (μm). The source says:
ATX (Autotaxin) is a 125 KDa glycoprotein with lysophospholipase D (LPLD) activity that generates the bioactive lipid lysophosphatidic acid (LPA) from lysophosphatidylcholine (LPC). The ATX biochemical assay utilizes a FRET (fluorescence resonance energy transfer) technology platform. The fluorescence signal of FRET substrate FS-3 is quenched due to intra-molecular FRET of a fluorophore to a non-fluorescing quencher (Ferguson, C. G., et al., Org. Lett. 2006 May 11; 8(10): 2023-2026, which is incorporated by reference in its entirety). ATX catalyzes the hydrolysis of the substrate which separates the dabsyl quencher from the fluorescein reporter, which becomes fluorescent. The reaction is monitored by a SpectraMax M5 (Molecular Devices, Sunnyvale, Calif.) with at excitation wavelength 485 nm and emission wavelength 535 nm.
2×ATX assay buffer: 100 mM Tris, 280 mM NaCl, 10 mM KCl, 2 mM CaCl2, 2 mM MgCl2, pH 7.4.
Human ATX protein: expressed and purified in house. Stored at −80° C.
Substrate FS-3 (Echelon, L-2000): 100 μg in 77.74 μL H2O (1 mM stock), stored at −20° C.
Compound dilution—All compounds were provided at 10 mM in 100% DMSO. In the first well, 2 μL of 10 mM compound was added to 78 μL of DMSO (1:40 dilution). In subsequent wells 3-fold dilution (total 10 dilutions) were performed.
1×ATX assay buffer was made up with a final concentration of 1 mg/mL fatty acid free-BSA using 2×ATX assay buffer, 10 mg/ml fatty acid free-BSA and ddH2O.
ATX protein was diluted with 1×ATX assay buffer to a concentration of 1.32 μg/mL (1.32×). 38 μL was added per well to the assay plate. The final concentration of ATX in the reaction as 1.0 μg/mL.
2 μL per well of compounds was transferred to provide the desired concentration. The plate was centrifuged, then incubated at room temperature for 30 minutes on the shaker.
FS-3 was diluted with 1×ATX assay buffer to a concentration of FS-3 of 10 μM (5×). Then, 10 μL was added per well to the assay plate. The final concentration of FS-3 in the reaction was 2 μM. The plate was centrifuged. The plate was kept shaking at room temperature for 2 hours. Because FS-3 substrate is light sensitive, plates were kept covered and protected from light.
Fluorescence was measured using SpectraMax M5 (excitation at 485 nm/emission at 538 nm, top read).

Another assay deals with T2, human S1P4 (Homo sapiens, UniProt O95977).
T2 construct: host or cells: recombinant CHEM cells
T2 sequence (O95977 1-384): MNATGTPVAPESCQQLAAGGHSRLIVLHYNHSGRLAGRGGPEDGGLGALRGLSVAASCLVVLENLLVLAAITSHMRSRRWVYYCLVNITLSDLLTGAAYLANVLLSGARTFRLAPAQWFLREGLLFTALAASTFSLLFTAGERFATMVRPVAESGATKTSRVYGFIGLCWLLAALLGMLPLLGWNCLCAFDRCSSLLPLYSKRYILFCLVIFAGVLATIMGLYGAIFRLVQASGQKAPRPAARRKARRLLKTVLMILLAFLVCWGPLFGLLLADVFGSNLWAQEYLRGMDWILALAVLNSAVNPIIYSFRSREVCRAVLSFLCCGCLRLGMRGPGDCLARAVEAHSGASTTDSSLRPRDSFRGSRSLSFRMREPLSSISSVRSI
The assay is described as follows: S1P receptor calcium flux assay, antagonist format (S1P4 antagonist activity). The settings on record: calcium mobilization, recombinant CHEM cells expressing human S1P4, stimulated with EC80 of reference agonist. In kind it is cell-based. The protocol: Compounds that are not specific for a particular S1P receptor can cause undesirable side effects. Accordingly, compounds are tested to identify those that are specific. Accordingly, the test compounds are tested in a calcium mobilization assay/S1P receptor activity assay. The procedure is essentially as described in Davis et al. (2005) Journal of Biological Chemistry, vol. 280, pp. 9833-9841, which is incorporated by reference in its entirety with the following modifications. Calcium mobilization assays are performed in recombinant CHEM cells expressing human S1P1, S1P2, S1P3, S1P4, or S1P5 purchased from Millipore (Billerica, Mass.). To detect free intracellular calcium, S1P1, S1P2, S1P3, S1P4, or S1P5 cells are loaded with FLIPR Calcium 4 dye from Molecular Devices (Sunnyvale, Calif.). Cells are imaged for calcium mobilization using a FLIPR^TETRA equipped with a 96-well dispense head.
Agonist percentage activation determinations were obtained by assaying sample compounds and referencing the Emax control for each receptor profiled. Antagonist percentage inhibition determinations were obtained by assaying sample compounds and referencing the control EC80 wells for each receptor profiled.
Sample compounds were plated in an eight-point, four-fold dilution series in duplicate with a top concentration of 10 μM. The concentrations described here reflect the final concentration of the compounds during the antagonist assay. During the agonist assay the compound concentrations were 1.25 fold higher to allow for the final desired concentration to be achieved with further dilution by EC80 of reference agonists during the antagonist assay.
Reference agonists were handled as mentioned above serving as assay control. The reference agonists were handled as described above for Emax.
Assay was read for 180 seconds using the FLIPR^TETRA (This assay run added sample compounds and reference agonist to respective wells). At the completion of the first “Single Addition” assay run, assay plate was removed from the FLIPR^TETRA and placed at 25° C. for seven (7) minutes.
Using the EC80 values determined during the agonist assay, stimulated all pre-incubated sample compound and reference antagonist (if applicable) wells with EC80 of reference agonist. Read for 180 seconds using the FLIPR^TETRA (This assay added reference agonist to respective wells—then fluorescence measurements were collected to calculate percentage inhibition values).
On the technique in general: A change in cytosolic calcium serves as a functional read-out for many receptors and channels.

As for `O=C(O)C1CC2CCCC(C1)N2Cc1cccc2ccc(O[C@H]3CC[C@@H](C(F)(F)F)CC3)c(C(F)(F)F)c12` (stereo partly drawn) [Example 27, 9-((8-(trifluoromethyl)-7-((cis-4-(trifluoromethyl)cyclohexyl)oxy)naphthalen-1-yl)methyl)-9-azabicyclo[3.3.1]nonane-3-carboxylic acid], at Human ATX protein, the half-maximal inhibitory concentration (IC50) lay in the range of 0.5 to 5 µM. Still for that read-out and setting: in the case of `O=C(O)C[C@H]1CCCN(Cc2cccc3ccc(O[C@H]4CC[C@@H](C(F)(F)F)CC4)c(C(F)(F)F)c23)C1` [Example 28, 2-((R)-1-((8-(trifluoromethyl)-7-((cis-4-(trifluoromethyl)cyclohexyl)oxy)naphthalen-1-yl)methyl)piperidin-3-yl)acetic acid] it was 0.5 to 5 µM. Turning to `CC(C)(C)[C@H]1CC[C@H](Oc2ccc3cccc(CN4CCC(C(=O)O)CC4)c3c2)CC1` [Example 29, 1-((7-((trans-4-(tert-butyl)cyclohexyl)oxy)naphthalen-1-yl)methyl)piperidine-4-carboxylic acid], the IC50 at human S1P4 is at most 5 µM; on Human ATX protein, above 5 µM. Turning to `CCCCCCCOc1ccc2cccc(CN3CCC(C(=O)O)CC3)c2c1` [Example 30, 1-((7-(heptyloxy)naphthalen-1-yl)methyl)piperidine-4-carboxylic acid], the IC50 at human S1P4 was at most 5 µM; at Human ATX protein it was above 5 µM. As for `CC(C)(C)[C@H]1CC[C@H](Oc2ccc3c(CN4CCC(C(=O)O)CC4)cccc3c2)CC1` [Example 31, 1-((6-((trans-4-(tert-butyl)cyclohexyl)oxy)naphthalen-1-yl)methyl)piperidine-4-carboxylic acid], the IC50 at human S1P4 is at most 5 µM. As for `CCCCCCCOc1ccc2c(CN3CCC(C(=O)O)CC3)cccc2c1` [Example 32, 1-((6-(heptyloxy)naphthalen-1-yl)methyl)piperidine-4-carboxylic acid], the IC50 on human S1P4 is at most 5 µM; at Human ATX protein it was above 5 µM. Taken in the same sequence, the figures for `CC(C)(C)[C@H]1CC[C@H](Oc2ccc3c(CN4CCC(CC(=O)O)CC4)cccc3c2)CC1` [Example 33, 2-(1-((6-((trans-4-(tert-butyl)cyclohexyl)oxy)naphthalen-1-yl)methyl)piperidin-4-yl)acetic acid] were at most 5 µM and above 5 µM. On the same counts, the results for `CCCCCCCOc1ccc2c(CN3CCC(CC(=O)O)CC3)cccc2c1` [Example 34, 2-(1-((6-(heptyloxy)naphthalen-1-yl)methyl)piperidin-4-yl)acetic acid] are at most 5 µM and above 5 µM.
